The values that follow come from patent US9725449B2, “Tricyclic compounds as anticancer agents” (BRISTOL-MYERS SQUIBB COMPANY, priority 2015, dated 2017).

The term IC50 denotes the concentration needed to halve the response being measured.

In this test the target is BRD4 (Homo sapiens, UniProt O60885). Briefly: Time resolved fluorescence resonance energy transfer (TR-FRET) binding assay, bromodomain BRD4. To be noted: one of the FRET assays described; read-out: FRET BRD4 IC50. For orientation: Time-resolved FRET reads energy transfer from a long-lived donor to a nearby acceptor.

On to `COc1ncc(C(C)(C)O)c2c1c1ncc(-c3c(C)noc3C)cc1n2[C@H](c1ccccc1)C1CCOCC1` [Example 141, 2-[5-(Dimethyl-1,2-oxazol-4-yl)-13-methoxy-8-[(S)-oxan-4-yl(phenyl)methyl]-3,8,12-triazatricyclo[7.4.0.0^2,^7]trideca-1(9),2,4,6,10,12-hexaen-10-yl]propan-2-ol], for which the concentration for half-maximal inhibition (IC50) is less than 10 nM.
For the compound `[2H]C([2H])([2H])c1nnn(C)c1-c1cnc2c3cnc(C(C)(C)O)cc3n([C@H](c3ccc(F)cc3)C3CCOCC3)c2c1` [Example 159, 2-{8-[(S)-(4-Fluorophenyl)(oxan-4-yl)methyl]-5-[4-(^2H3)methyl-1-methyl-1H-1,2,3-triazol-5-yl]-3,8,12-triazatricyclo[7.4.0.0^2,^7]trideca-1(13),2(7),3,5,9,11-hexaen-11-yl}propan-2-ol], the IC50 was less than 1500 nM.
`[2H]C([2H])([2H])Oc1ncc(S(C)(=O)=O)c2c1c1ncc(-c3c(C)noc3C([2H])([2H])[2H])cc1n2[C@H](c1ccccc1)C1CCOCC1` [Example 54, 10-Methanesulfonyl-13-(^2H3)methoxy-5-[5-(^2H3)methyl-3-methyl-1,2-oxazol-4-yl]-8-[(S)-oxan-4-yl(phenyl)methyl]-3,8,12-triazatricyclo[7.4.0.0^2,^7]trideca-1(13),2(7),3,5,9,11-hexaene]: the IC50 was less than 10 nM.
Turning to `COc1nccc2c3ncc(-c4c(C)nnn4C)cc3n(C(c3cccc(F)c3F)C3CCOCC3)c12` (single isomer, unassigned) [Example 22, 8-[(2,3-Difluorophenyl)(oxan-4-yl)methyl]-5-(dimethyl-1H-1,2,3-triazol-5-yl)-10-methoxy-3,8,11-triazatricyclo[7.4.0.0^2,^7]trideca-1(13),2(7),3,5,9,11-hexaene], the IC50 is less than 10 nM.
For `Cc1nnn(C)c1-c1cnc2c3ccc(Cl)nc3n([C@H](c3ccccc3)C3CCOCC3)c2c1` [Example 14, 11-Chloro-5-(dimethyl-1H-1,2,3-triazol-5-yl)-8-[(S)-oxan-4-yl(phenyl)methyl]-3,8,10-triazatricyclo[7.4.0.0^2,^7]trideca-1(9),2(7),3,5,10,12-hexaene] the value was less than 10 nM; for `COc1ncc(S(C)(=O)=O)c2c1c1ncc(-c3c(C)noc3C)cc1n2[C@H](c1ccccc1)C1CCOCC1` [Example 45, 5-(Dimethyl-1,2-oxazol-4-yl)-10-methanesulfonyl-13-methoxy-8-[(S)-oxan-4-yl(phenyl)methyl]-3,8,12-triazatricyclo[7.4.0.0^2,^7]trideca-1(13),2(7),3,5,9,11-hexaene], less than 1 nM.
Take `COc1ncc(S(=O)(=O)CC2(O)COC2)c2c1c1ncc(-c3c(C)nnn3C)cc1n2[C@H](c1ccccc1)C1CCOCC1` [Example 106, 3-({[5-(Dimethyl-1H-1,2,3-triazol-5-yl)-13-methoxy-8-[(S)-oxan-4-yl(phenyl)methyl]-3,8,12-triazatricyclo[7.4.0.0^2,^7]trideca-1(13),2(7),3,5,9,11-hexaen-10-yl]sulfonyl}methyl)oxetan-3-ol]: the IC50 was less than 10 nM.
As for `[2H]C([2H])([2H])c1nnn(C)c1-c1cnc2c3cnc(-c4c(C([2H])([2H])[2H])nnn4C)cc3n([C@H](c3ccccc3)C3CCOCC3)c2c1` [Example 168, 5,11-Bis[4-(^2H3)methyl-1-methyl-1H-1,2,3-triazol-5-yl]-8-[(S)-oxan-4-yl(phenyl)methyl]-3,8,12-triazatricyclo[7.4.0.0^2,^7]trideca-1(9),2(7),3,5,10,12-hexaene], the IC50 is less than 1 nM.
For `Cc1nnn(C)c1-c1cnc2c3ccc(NC(=O)C(C)(C)C)nc3n([C@H](c3ccccc3)C3CCOCC3)c2c1` [Example 207, N-[5-(Dimethyl-1H-1,2,3-triazol-5-yl)-8-[(S)-oxan-4-yl(phenyl)methyl]-3,8,10-triazatricyclo[7.4.0.0^2,^7]trideca-1(9),2(7),3,5,10,12-hexaen-11-yl]-2,2-dimethylpropanamide] the value was less than 10 nM.
In the case of `Cc1noc(C)c1-c1cnc2c3cnc(C(C)(C)O)cc3n([C@H](c3ccc(F)cc3)C3CCOCC3)c2c1` [Example 331, 2-[5-(Dimethyl-1,2-oxazol-4-yl)-8-[(S)-(4-fluorophenyl)(oxan-4-yl)methyl]-3,8,12-triazatricyclo[7.4.0.0^2,^7]trideca-1(9),2(7),3,5,10,12-hexaen-11-yl]propan-2-ol], the IC50 was less than 10 nM.
As to `[2H]C([2H])([2H])c1nnn(C)c1-c1cnc2c3cnc(-c4c(C([2H])([2H])[2H])nnn4C)cc3n([C@H](c3ccc(F)cc3)C3CCOCC3)c2c1` [Example 160, 8-[(S)-(4-Fluorophenyl)(oxan-4-yl)methyl]-5,11-bis[4-(^2H3)methyl-1-methyl-1H-1,2,3-triazol-5-yl]-3,8,12-triazatricyclo[7.4.0.0^2,^7]trideca-1(13),2(7),3,5,9,11-hexaene], the IC50 is less than 10 nM.
On to `Cc1nnn(C)c1-c1cnc2c3cc(Cl)ncc3n([C@H](c3ccccc3F)C3CCOCC3)c2c1` [Example 4, 12-Chloro-5-(dimethyl-1H-1,2,3-triazol-5-yl)-8-[(S)-(2-fluorophenyl)(oxan-4-yl)methyl]-3,8,11-triazatricyclo[7.4.0.0^2,^7]trideca-1(13),2(7),3,5,9,11-hexaene], for which the IC50 is less than 10 nM.
In the case of `Cc1noc(C)c1-c1cnc2c3cnc(Cl)cc3n(C(c3ccc(Cl)cn3)C3CCOCC3)c2c1` (single isomer, unassigned) [Example 328], the IC50 is less than 10 nM.
Regarding `COc1ncc(S(C)(=O)=O)c2c1c1ncc(-c3c(C)noc3C)cc1n2C(c1ccccc1)C1CCC(F)(F)CC1` (single isomer, unassigned) [Example 89, 8-[(4,4-Difluorocyclohexyl)(phenyl)methyl]-5-(dimethyl-1,2-oxazol-4-yl)-10-methanesulfonyl-13-methoxy-3,8,12-triazatricyclo[7.4.0.0^2,^7]trideca-1(13),2(7),3,5,9,11-hexaene], the IC50 is less than 1500 nM.
For the compound `Cc1cc([C@H](C2CCOCC2)n2c3cc(-c4c(C)nnn4C)ncc3c3ncc(C(C)(C)O)cc32)no1` [Example 365], the IC50 is less than 10 nM.
For `[2H]C([2H])([2H])c1nnn(C)c1-c1cnc2c3c(OC)ncc(S(C)(=O)=O)c3n([C@H](c3ccc(F)cc3)C3CCC(F)(F)CC3)c2c1` [Example 95, 8-[(S)-(4,4-Difluorocyclohexyl)(4-fluorophenyl)methyl]-10-methanesulfonyl-13-methoxy-5-[4-(^2H3)methyl-1-methyl-1H-1,2,3-triazol-5-yl]-3,8,12-triazatricyclo[7.4.0.0^2,^7]trideca-1(13),2(7),3,5,9,11-hexaene] the value was less than 10 nM; for `[2H]C([2H])([2H])c1nnn(C)c1-c1cnc2c3ccc(NCCS(C)(=O)=O)nc3n([C@H](c3ccccc3)C3CCOCC3)c2c1` [Example 189, N-(2-Methanesulfonylethyl)-5-[4-(^2H3)methyl-1-methyl-1H-1,2,3-triazol-5-yl]-8-[(S)-oxan-4-yl(phenyl)methyl]-3,8,10-triazatricyclo[7.4.0.0^2,^7]trideca-1(9),2(7),3,5,10,12-hexaen-11-amine], less than 1 nM; for `[2H]C([2H])([2H])c1nnn(C)c1-c1cnc2c3c(NCC(F)(F)F)cncc3n(C(c3ncccc3F)C3CCOCC3)c2c1` (stereo not drawn) [Example 304, 8-[(3-Fluoropyridin-2-yl)(oxan-4-yl)methyl]-5-[4-(^2H3)methyl-1-methyl-1H-1,2,3-triazol-5-yl]-N-(2,2,2-trifluoroethyl)-3,8,11-triazatricyclo[7.4.0.0^2,^7]trideca-1(9),2(7),3,5,10,12-hexaen-13-amine], less than 10 nM.
For `Cc1nnn(C)c1-c1cnc2c3cc(S(C)(=O)=O)ncc3n([C@H](c3ccccc3F)C3CCOCC3)c2c1` [Example 32, 5-(Dimethyl-1H-1,2,3-triazol-5-yl)-8-[(S)-(2-fluorophenyl)(oxan-4-yl)methyl]-12-methanesulfonyl-3,8,11-triazatricyclo[7.4.0.0^2,^7]trideca-1(13),2(7),3,5,9,11-hexaene] the value was less than 10 nM.
For `Cc1nnn(C)c1-c1cnc2c3c(NCC4CC4)ncc(Cl)c3n([C@H](c3ccccc3)C3CCOCC3)c2c1` [Example 44, 10-Chloro-N-(cyclopropylmethyl)-5-(dimethyl-1H-1,2,3-triazol-5-yl)-8-[(S)-oxan-4-yl(phenyl)methyl]-3,8,12-triazatricyclo[7.4.0.0^2,^7]trideca-1(13),2(7),3,5,9,11-hexaen-13-amine] the value was less than 10 nM; for `Cc1nnn(C)c1-c1cnc2c3ccc(NS(C)(=O)=O)nc3n([C@H](c3ccccc3)C3CCOCC3)c2c1` [Example 208, N-[5-(Dimethyl-1H-1,2,3-triazol-5-yl)-8-[(S)-oxan-4-yl(phenyl)methyl]-3,8,10-triazatricyclo[7.4.0.0^2,^7]trideca-1(9),2(7),3,5,10,12-hexaen-11-yl]methanesulfonamide], less than 10 nM; for `Cc1cnn(C)c1-c1cnc2c3ccc(S(C)(=O)=O)nc3n([C@H](c3ccccc3)C3CCOCC3)c2c1` [Example 146, 5-(1,4-Dimethyl-1H-pyrazol-5-yl)-11-methanesulfonyl-8-[(S)-oxan-4-yl(phenyl)methyl]-3,8,10-triazatricyclo[7.4.0.0^2,^7]trideca-1(13),2(7),3,5,9,11-hexaene], less than 1500 nM.
Turning to `Cc1nnn(C)c1-c1cnc2c3c(O)ncc(S(C)(=O)=O)c3n([C@H](c3ccccc3)C3CCOCC3)c2c1` [Example 93, 5-(Dimethyl-1H-1,2,3-triazol-5-yl)-10-methanesulfonyl-8-[(S)-oxan-4-yl(phenyl)methyl]-3,8,12-triazatricyclo[7.4.0.0^2,^7]trideca-1(13),2(7),3,5,9,11-hexaen-13-ol], the IC50 is less than 10 nM.
With `[2H]C([2H])([2H])c1nnn(C)c1-c1nc2c(cc1F)c1ncc(C(C)(C)O)cc1n2[C@H](c1ccccc1)C1CCOCC1` [Example 361, 2-{12-Fluoro-11-[4-(^2H3)methyl-1-methyl-1H-1,2,3-triazol-5-yl]-8-[(S)-oxan-4-yl(phenyl)methyl]-3,8,10-triazatricyclo[7.4.0.0^2,^7]trideca-1(9),2(7),3,5,10,12-hexaen-5-yl}propan-2-ol], the IC50 was less than 10 nM.
